Experimental data taken from patent publication US20140187594A1, “DIPHENYL ETHER COMPOUNDS FOR THE TREATMENT OF LIVER, LUNG DISORDERS, DIABETIC COMPLICATIONS AND CARDIOVASCULAR DISEASES” (ORCHID CHEMICALS AND PHARMACEUTICALS LTD, priority 2010, published 2014).

Key:
3T3-L1 fibroblasts = experiment: Adipogenesis in 3T3-L1 mouse fibroblast (oil red O staining); type: cell-based; details: 1 μM or 10 μM, 7 days
Experimental: 3T3-L1 fibroblasts were seeded at a concentration of 10,000 cells/well in 24 well tissue culture plates in a total volume of 1 mL Dulbecco's Modified Eagle Medium (DMEM media) containing 10% fetal bovine serum, penicillin and streptomycin. […] After every two days, the media contents were replaced with fresh media and the drug. This process was carried out for 7 days. After 7 days of treatment, the cells were fixed in 10% formalin for 1 hour at […], stained with oil red 0 solution for 10 minutes and washed 6 times with 1×PBS to remove the excess stain. The plates were dried and visualized under 40× objective using Nikon E200 microscope and the pictures were taken by Nikon DXM 1200C digital camera.

iNOS = iNOS inhibition in LPS challenged cells (anti iNOS antibody); type: cell-based; details: 30 μM, one hour preincubation, LPS 1 μg/mL for 6 hours, FIG. 38
Text: Based on the results obtained in the in-vitro studies, it can be concluded that Compounds A, B and C are moderately potent inhibitors of Aldose Reductase. […] At the end of the assay, cell lysates were probed with anti iNOS antibody. Compound of formula (A) inhibits the iNOS production in these cells (FIG. 38). […] Since iNOS is implicated in the pathology of diabetic complications, it is anticipated that Compound of formula (A) will have a protective effect in the development of neovascularization contributed by elevated iNOS. Inhibits LPS induced TNF-α and IL-6 Inhibition In Vivo: This study was undertaken when the mice are at 10-11 weeks in age. On Day 0 their body weights were measured and they were assigned to two groups of 6 mice each to get similar average group body weights. They were orally administered with either vehicle (deionized water, Group 1) or Compound of formula (A) (50 mg/kg; Group 2) daily between 9:30 and 10:30 AM for 10 days. The body weights were measured on day 3, 7 and 10 of the study before administration of vehicle or drug. On Day 10, the mice were administered LPS at 400 μg/kg, IP. After 1 hour they were orally administered with either vehicle or Compound of formula (A). After another 90 minutes, the mice were euthanized by carbon dioxide asphyxiation. Blood was collected by cardiac puncture and was processed to obtain serum. […]

[1] = tested on: bleomycin induced lung fibrosis; experiment: Bleomycin induced lung fibrosis (prophylactic); type: in vivo, C57BL/6 mice; details: 100 mg/kg p.o., 7 days before and 14 days after bleomycin; FIGS. 26 & 27
Experimental: Female C57BL/6 mice were used in this study. Animals were divided into four groups based on their body weight. To induce fibrosis bleomycin was administered at 0.1 U/animal (volume 50 μL) intratracheally to Group II (Disease control), Group III and Group IV, whereas Group I (Normal control) received only saline. The bleomycin challenged Group III and Group IV animals were treated with pentoxifylline (20 mg/kg p.o.) and compound of formula (A) (100 mg/kg p.o.) respectively, whereas Group I and the bleomycin challenged Group II animals received vehicle for 7 days before and 14 days after bleomycin administration. Body weight, feed and liquid intake and mortality rate were recorded. At the end of the study, animals were bled and plasma was stored in deep freezer (−80° C.) for biochemical parameters estimation. Then, the animals were sacrificed and lung tissue harvested and weighed. Right lung tissue was stored in deep freezer (−80° C.) for expression study and drug concentration analysis. The left lung tissues was fixed in formalin (10%) by slow infusion, then immersed and preserved in formalin (10%) for histopathology examination.

DIO mice = experiment: Insulin resistance (HOMA-IR) in diet induced obese mice; type: in vivo, C57BL/6 mice; details: 30 mg/kg for 28 days, FIG. 22
Experimental: The animal model with obesity with insulin resistance was developed by feeding 60 Kcal % high fat diet, which simulates several features of human obesity and insulin resistance. These features were treated as mentioned below. […] C57BL/6 male mice aged 6-8 weeks, and body weight ranges between 16-22 g were used. Animals were divided into two groups. First group (n=10) was treated as a normal control fed chow feed (Nutri Labe Rodent, Tetragon Chemie Pvt. Ltd., Bangalore) and the second group (n=25) fed 60 Kcal % high fat diet (HFD) (Research Diets, New Brunswick, N.J., Cat# D12492 with blue dye) for 120 days. At the end of induction period the animals were selected based on insulin resistance for further study. […] During this period, body weight and feed intake was recorded daily. […]
The parameters like Glucose, ALT, AST, TC, TG (Clinical chemistry analyzer Erba XL 300), insulin (Linco®-CA, Product code: EZRMI-13K) and TNFα (GE Healthcare, Amersham, UK. Product code: RPN2718) were measured using commercially available kits. NEFA was measured in serum using commercially available NEFA C kit (Product code No: 279-75401, Wako pure chemical industries ltd., Japan).

[2] = biological target: T1, Rat lens Aldose reductase (Rattus norvegicus, UniProt P07943); experiment: Aldose reductase inhibitory activity; type: biochemical; details: rat lens enzyme, 0.2 mM NADPH, pH 6.2, 25° C.
T1 construct: Rat lens Aldose reductase is used; from tissue; host or cells: rat lens
Experimental: Rat lens Aldose reductase is used. Test compound and/or vehicle is preincubated with 3000 μg/ml enzyme (J. Enzyme Inhib. 1993, 7, 249-256; Biol. Pharm. Bull. 1994, 17, 458-459) and 0.2 mM NADPH in phosphate buffer pH 6.2 for 15 minutes at 25° C. The reaction is initiated by addition of 10 mM DL-glyceraldehyde and incubated for another 20 minutes. Determination of the amount of NADPH remained is read spectrophotometrically. Compounds are screened at 10 μM. Since enzyme activity may change from lot to lot, the concentration used will be adjusted if necessary.

Structure (SMILES): COC(=O)[C@@H](N)Cc1ccc(Oc2ccc(CC3SC(=O)NC3=O)cc2)cc1 (stereo partly drawn) [Compound of formula (A), Methyl(2S)-2-amino-3-(4-{4-[(2,4-dioxo-1,3-thiazolidin-5-yl)methyl]phenoxy}phenyl)propanoate]
- adipogenesis (intracellular lipids stained with oil red O) (3T3-L1 fibroblasts): did not induce adipogenesis
- iNOS production (iNOS): potent inhibitor of iNOS with activity superior to Rosiglitazone at equal concentrations
- lung fibrosis formation (histopathology) [1]: significantly prevents fibrosis formation
- HOMA-IR (DIO mice): improvement in HOMA-IR
- IC50 [2]: 4.07 µM
